We go through three compounds from ChEMBL document CHEMBL5506058, “Discovery of Quinazoline and Quinoline-Based Small Molecules as Utrophin Upregulators via AhR Antagonism for the Treatment of Duchenne Muscular Dystrophy” (J Med Chem, 2024).

The source made the active and inactive calls. No cut-off for these calls is given here.

Data set [1] in a line: Upregulation of utrophin expression in mouse C2C12 cells assessed as fold increase at 800 nM measured after 72 hrs by In-cell ELISA method. The class given is functional. In general terms: ELISA stands for enzyme-linked immunosorbent assay.
Data set [2] has as its system C2C12. Nature of the data set: Upregulation of utrophin mRNA expression in mouse C2C12 cells at 800 nM measured after 72 hrs by qRT-PCR analysis. The data set is classed as functional, cell-based. In general terms: Real-time PCR tracks product formation cycle by cycle.
Data set [3] concerns C2C12. Nature of the data set: Cytotoxicity against mouse C2C12 cells assessed as reduction in cell viability at 0.78 to 100 uM measured after 24 hrs by MTT assay. The conditions noted are these: c2c12, 24 h, dose 0.78-100 µM. The class given is toxicity, cell-based. A general note: Tetrazolium dyes change colour on reduction, which living cells bring about.
The nature of data set [4]: Upregulation of utrophin mRNA expression in mouse C2C12 cells assessed as fold increase at 800 nM measured after 72 hrs by qRT-PCR analysis. The class given is functional.
In data set [5] the test system is C2C12. As to the kind of experiment: Upregulation of utrophin mRNA expression in mouse C2C12 level measured after 72 hrs by qRT-PCR analysis. The conditions noted are these: dose 200-800 nM. The data set is classed as functional, cell-based.
Data set [6] deals with C2C12. Nature of the data set: Upregulation of utrophin protein expression in mouse C2C12 level measured after 72 hrs by Westernblot analysis. The class given is functional, cell-based. The note with it: dose 200-800 nM.
Data set [7] in a line: Upregulation of utrophin protein expression in mouse C2C12 cells assessed as fold increase at 800 nM measured after 72 hrs by Western blot analysis. The data set is classed as functional.

For `CS(=O)(=O)c1ccc2nc(NCc3ccncc3)ncc2c1`, in data set [1], the “fold change (FC)” value came out at 1.88. Moreover, the result with C2C12 [2] was Active. Moreover, the Activity result in the data set on C2C12 [3] was “Toxic”.
With `CCS(=O)(=O)c1ccc2nc(NCc3ccc(C(F)(F)F)cc3)ncc2c1`, the “fold change (FC)” value is given as 1.95 in data set [4], 1.93 in data set [1] and 2.51 in data set [7]. Also, the Activity result in the data set on C2C12 [5] is “Dose-Dependent Effect”; with C2C12 [6], “Dose-Dependent Effect”; in the data set on C2C12 [3] it was “Toxic”. Besides, the outcome with C2C12 [2] was Active.
For the compound `CS(=O)(=O)c1ccc2cnc(NCc3ccc(F)cc3)nc2c1`, the “fold change (FC)” value in data set [1] is recorded as 0.95. Also, the Activity result in the data set with C2C12 [3] was “Toxic”.
